Assay results: PubChem BioAssay AID2060511 (Molecular Pharmacology Branch, DTP, NCI, 2025)

Test system: 422866-222-R5-J1-PDC spheroids with HUVEC/MSC, viability
Experiment: Anticancer human tumor 422866-222-R5-J1-PDC patient-derived pancreatic adenocarcinoma cell line growth inhibition [GQUAD]
Conditions: for IC50: curve of first compound; for viability, T/C: stronger effect = lower value
How it was run: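 Tumor cells were grown as complex spheroids with HUVEC endothelial cells and mesenchymal stem cells as stroma. G-quadruplex stabilizers were combined with targeted agents over half-log dilutions from near the clinical Cmax, or from 10 microM.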

[1] = second compound 0.0316 µM, first compound 0.0316 µM
[2] = second compound 0.0316 µM, first compound 0.1 µM
[3] = second compound 0.0316 µM, first compound 0.316 µM
[4] = second compound 0.0316 µM, first compound 1 µM
[5] = second compound 0.0316 µM, first compound 3.16 µM
[6] = second compound 0.0316 µM, first compound 10 µM
[7] = second compound 0.1 µM, first compound 0.0316 µM
[8] = second compound 0.1 µM, first compound 0.1 µM
[9] = second compound 0.1 µM, first compound 0.316 µM
[10] = second compound 0.1 µM, first compound 1 µM
[11] = second compound 0.1 µM, first compound 3.16 µM
[12] = second compound 0.1 µM, first compound 10 µM
[13] = second compound 0.316 µM, first compound 0.0316 µM
[14] = second compound 0.316 µM, first compound 0.1 µM
[15] = second compound 0.316 µM, first compound 0.316 µM
[16] = second compound 0.316 µM, first compound 1 µM
[17] = second compound 0.316 µM, first compound 3.16 µM
[18] = second compound 0.316 µM, first compound 10 µM
[19] = second compound 1 µM, first compound 0.0316 µM
[20] = second compound 1 µM, first compound 0.1 µM
[21] = second compound 1 µM, first compound 0.316 µM
[22] = second compound 1 µM, first compound 1 µM
[23] = second compound 1 µM, first compound 3.16 µM
[24] = second compound 1 µM, first compound 10 µM
[25] = second compound 3.16 µM, first compound 0.0316 µM
[26] = second compound 3.16 µM, first compound 0.1 µM
[27] = second compound 3.16 µM, first compound 0.316 µM
[28] = second compound 3.16 µM, first compound 1 µM
[29] = second compound 3.16 µM, first compound 3.16 µM
[30] = second compound 3.16 µM, first compound 10 µM
[31] = second compound 10 µM, first compound 0.0316 µM
[32] = second compound 10 µM, first compound 0.1 µM
[33] = second compound 10 µM, first compound 0.316 µM
[34] = second compound 10 µM, first compound 1 µM
[35] = second compound 10 µM, first compound 3.16 µM
[36] = second compound 10 µM, first compound 10 µM
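Further: spheroids exposed to compounds for seven days before reading.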
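Wherever viability, T/C is given: percent viability relative to DMSO vehicle control taken as 100%.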

Q: Which IC50 (second compound 0.0316 µM) does the source give for `C#Cc1c(F)ccc2cc(O)cc(-c3ncc4c(N5CC6CCC(C5)N6)nc(OCC56CCCN5CC(F)C6)nc4c3F)c12` (stereo not drawn) + Cc1[nH]c2ccc(F)cc2c1-c1nc2c3cccnc3c3ncccc3c2[nH]1 here?
A: 2.18 µM

Q: And the IC50 (second compound 0.1 µM)?
A: 2.23 µM

Q: And the IC50 (second compound 0.316 µM)?
A: 1.93 µM

Q: What about the IC50 (second compound 1 µM) of the same compound?
A: 2.16 µM

Q: What about the IC50 (second compound 3.16 µM) of the same compound?
A: 0.736 µM

Q: And the IC50 (second compound 10 µM)?
A: 0.998 µM

Q: What about the viability, T/C [1] of the same compound?
A: 96.1%

Q: And the viability, T/C [2]?
A: 96.4%

Q: What about the viability, T/C [3] of the same compound?
A: 84.4%

Q: And the viability, T/C [4]?
A: 78%

Q: What about the viability, T/C [5] of the same compound?
A: 30.2%

Q: And the viability, T/C [6]?
A: 43.2%

Q: And the viability, T/C [7]?
A: 106%

Q: And the viability, T/C [8]?
A: 92.1%

Q: And the viability, T/C [9]?
A: 98.4%

Q: And the viability, T/C [10]?
A: 75.3%

Q: What about the viability, T/C [11] of the same compound?
A: 39.1%

Q: And the viability, T/C [12]?
A: 33.4%

Q: What about the viability, T/C [13] of the same compound?
A: 106%

Q: What about the viability, T/C [14] of the same compound?
A: 86%

Q: And the viability, T/C [15]?
A: 84%

Q: And the viability, T/C [16]?
A: 64.4%

Q: What about the viability, T/C [17] of the same compound?
A: 35%

Q: What about the viability, T/C [18] of the same compound?
A: 37.4%

Q: And the viability, T/C [19]?
A: 75.9%

Q: And the viability, T/C [20]?
A: 98.3%

Q: And the viability, T/C [21]?
A: 91.6%

Q: And the viability, T/C [22]?
A: 69%

Q: And the viability, T/C [23]?
A: 40.4%

Q: What about the viability, T/C [24] of the same compound?
A: 40.8%

Q: And the viability, T/C [25]?
A: 87.2%

Q: What about the viability, T/C [26] of the same compound?
A: 75.5%

Q: And the viability, T/C [27]?
A: 70.6%

Q: And the viability, T/C [28]?
A: 42.8%

Q: What about the viability, T/C [29] of the same compound?
A: 30.7%

Q: What about the viability, T/C [30] of the same compound?
A: 34.6%

Q: And the viability, T/C [31]?
A: 71.3%

Q: And the viability, T/C [32]?
A: 57.6%

Q: And the viability, T/C [33]?
A: 67%

Q: And the viability, T/C [34]?
A: 46.9%

Q: And the viability, T/C [35]?
A: 39.4%

Q: What about the viability, T/C [36] of the same compound?
A: 38%

Q: What does the source list for `CC(=O)O[C@H]1C(=O)[C@@]2(C)[C@H]([C@H](OC(=O)c3ccccc3)[C@]3(O)C[C@H](OC(=O)[C@H](O)[C@@H](NC(=O)c4ccccc4)c4ccccc4)C(C)=C1C3(C)C)[C@]1(OC(C)=O)CO[C@@H]1C[C@@H]2O` + Cc1[nH]c2ccc(F)cc2c1-c1nc2c3cccnc3c3ncccc3c2[nH]1?
A: IC50 (second compound 0.0316 µM): 0.671 µM; IC50 (second compound 0.1 µM): 1.3 µM; IC50 (second compound 0.316 µM): 2.04 µM; IC50 (second compound 1 µM): 1.72 µM; IC50 (second compound 3.16 µM): 2.16 µM; IC50 (second compound 10 µM): 2.04 µM; viability, T/C [1]: 143%; viability, T/C [2]: 143%; viability, T/C [3]: 74.7%; viability, T/C [4]: 39%; viability, T/C [5]: 44.4%; viability, T/C [6]: 1.31%; viability, T/C [7]: 109%; viability, T/C [8]: 128%; viability, T/C [9]: 100%; viability, T/C [10]: 48.5%; viability, T/C [11]: 37.1%; viability, T/C [12]: 2.15%; viability, T/C [13]: 122%; viability, T/C [14]: 107%; viability, T/C [15]: 99.5%; viability, T/C [16]: 55.3%; viability, T/C [17]: 46.9%; viability, T/C [18]: 3.01%; viability, T/C [19]: 117%; viability, T/C [20]: 115%; viability, T/C [21]: 98.5%; viability, T/C [22]: 53.4%; viability, T/C [23]: 42%; viability, T/C [24]: 2.03%; viability, T/C [25]: 70.5%; viability, T/C [26]: 75%; viability, T/C [27]: 95%; viability, T/C [28]: 43.4%; viability, T/C [29]: 50%; viability, T/C [30]: 3.32%; viability, T/C [31]: 56.1%; viability, T/C [32]: 62%; viability, T/C [33]: 58.2%; viability, T/C [34]: 46.6%; viability, T/C [35]: 49.7%; viability, T/C [36]: 4.03%

Q: With `O=C(NO)c1cnc(N2CCN(S(=O)(=O)c3ccc4ccccc4c3)CC2)nc1` + Cc1[nH]c2ccc(F)cc2c1-c1nc2c3cccnc3c3ncccc3c2[nH]1 as the compound, how does the IC50 (second compound 0.0316 µM) read?
A: > 10 µM

Q: And the IC50 (second compound 0.1 µM)?
A: > 10 µM

Q: What about the IC50 (second compound 0.316 µM) of the same compound?
A: > 10 µM

Q: And the IC50 (second compound 1 µM)?
A: > 10 µM

Q: And the IC50 (second compound 3.16 µM)?
A: > 10 µM

Q: What about the IC50 (second compound 10 µM) of the same compound?
A: > 10 µM

Q: And the viability, T/C [1]?
A: 78.6%

Q: What about the viability, T/C [2] of the same compound?
A: 69.2%

Q: What about the viability, T/C [3] of the same compound?
A: 64.7%

Q: What about the viability, T/C [4] of the same compound?
A: 68.1%

Q: What about the viability, T/C [5] of the same compound?
A: 71.6%

Q: What about the viability, T/C [6] of the same compound?
A: 75.4%

Q: And the viability, T/C [7]?
A: 81.1%

Q: And the viability, T/C [8]?
A: 68.3%

Q: And the viability, T/C [9]?
A: 56.4%

Q: What about the viability, T/C [10] of the same compound?
A: 61%

Q: What about the viability, T/C [11] of the same compound?
A: 74.2%

Q: What about the viability, T/C [12] of the same compound?
A: 72.3%

Q: And the viability, T/C [13]?
A: 77.5%

Q: What about the viability, T/C [14] of the same compound?
A: 68%

Q: And the viability, T/C [15]?
A: 71.4%

Q: And the viability, T/C [16]?
A: 61.7%

Q: And the viability, T/C [17]?
A: 63.2%

Q: What about the viability, T/C [18] of the same compound?
A: 78.1%

Q: What about the viability, T/C [19] of the same compound?
A: 64.4%

Q: What about the viability, T/C [20] of the same compound?
A: 61.6%

Q: What about the viability, T/C [21] of the same compound?
A: 62.6%

Q: And the viability, T/C [22]?
A: 61.2%

Q: What about the viability, T/C [23] of the same compound?
A: 75%

Q: What about the viability, T/C [24] of the same compound?
A: 70%

Q: And the viability, T/C [25]?
A: 56%

Q: And the viability, T/C [26]?
A: 56.6%

Q: What about the viability, T/C [27] of the same compound?
A: 51.6%

Q: What about the viability, T/C [28] of the same compound?
A: 63.3%

Q: What about the viability, T/C [29] of the same compound?
A: 67.8%

Q: What about the viability, T/C [30] of the same compound?
A: 66%

Q: What about the viability, T/C [31] of the same compound?
A: 60.1%

Q: And the viability, T/C [32]?
A: 47.8%

Q: And the viability, T/C [33]?
A: 59.5%

Q: What about the viability, T/C [34] of the same compound?
A: 57%

Q: What about the viability, T/C [35] of the same compound?
A: 51%

Q: And the viability, T/C [36]?
A: 64.4%

Q: How did the IC50 (second compound 0.0316 µM) turn out when `O=c1[nH]cc(F)c(=O)[nH]1` + Cc1[nH]c2ccc(F)cc2c1-c1nc2c3cccnc3c3ncccc3c2[nH]1 was run?
A: > 10 µM

Q: And the IC50 (second compound 0.1 µM)?
A: > 10 µM

Q: What about the IC50 (second compound 0.316 µM) of the same compound?
A: > 10 µM

Q: And the IC50 (second compound 1 µM)?
A: > 10 µM

Q: What about the IC50 (second compound 3.16 µM) of the same compound?
A: > 10 µM

Q: And the IC50 (second compound 10 µM)?
A: > 10 µM

Q: What about the viability, T/C [1] of the same compound?
A: 95%

Q: What about the viability, T/C [2] of the same compound?
A: 101%

Q: And the viability, T/C [3]?
A: 101%

Q: And the viability, T/C [4]?
A: 93.8%

Q: And the viability, T/C [5]?
A: 84.5%

Q: And the viability, T/C [6]?
A: 69.1%

Q: What about the viability, T/C [7] of the same compound?
A: 97.9%

Q: And the viability, T/C [8]?
A: 111%

Q: What about the viability, T/C [9] of the same compound?
A: 105%

Q: What about the viability, T/C [10] of the same compound?
A: 84.2%

Q: And the viability, T/C [11]?
A: 79.9%

Q: And the viability, T/C [12]?
A: 60.5%

Q: What about the viability, T/C [13] of the same compound?
A: 103%

Q: What about the viability, T/C [14] of the same compound?
A: 95.8%

Q: What about the viability, T/C [15] of the same compound?
A: 114%

Q: And the viability, T/C [16]?
A: 73.2%

Q: And the viability, T/C [17]?
A: 82.6%

Q: And the viability, T/C [18]?
A: 74%

Q: And the viability, T/C [19]?
A: 101%

Q: What about the viability, T/C [20] of the same compound?
A: 105%

Q: What about the viability, T/C [21] of the same compound?
A: 101%

Q: What about the viability, T/C [22] of the same compound?
A: 101%

Q: What about the viability, T/C [23] of the same compound?
A: 89.6%

Q: And the viability, T/C [24]?
A: 72.9%

Q: And the viability, T/C [25]?
A: 85.7%

Q: What about the viability, T/C [26] of the same compound?
A: 99.3%

Q: What about the viability, T/C [27] of the same compound?
A: 95.4%

Q: And the viability, T/C [28]?
A: 81.4%

Q: And the viability, T/C [29]?
A: 86.9%

Q: What about the viability, T/C [30] of the same compound?
A: 64%

Q: And the viability, T/C [31]?
A: 74.9%

Q: What about the viability, T/C [32] of the same compound?
A: 79.7%

Q: What about the viability, T/C [33] of the same compound?
A: 85.3%

Q: And the viability, T/C [34]?
A: 72%

Q: And the viability, T/C [35]?
A: 75.5%

Q: What about the viability, T/C [36] of the same compound?
A: 53.3%
